The record followed here is US5376637A, “Pharmaceutical preparation containing vasoactive intestinal polypeptide or its analogue” (Sanwa Kagaku Kenkyusho Co., Ltd., priority 1991, dated 1994).

One assay relates to PCA reaction. Kind of assay: Passive cutaneous anaphylaxis test (PCA reaction). Particulars: male rat. Format: in vivo. As to the method:
A rat was immunized with egg-albumin suspended in aluminum hydroxide gel in a conventional manner and a blood letting was carried out to obtain an antiserum rich in IgE.
A male rat was anesthetized with ethyl ether and hairs on back were sheared to intradermally inject by 0.1 ml of the antiserum solution (diluted to 5-folds in volume) described in Item (1), at both sides with a certain distance from a medial line on the back. After 72 hours, a mixed solution of egg albumin (5 mg/kg), 2% Evans blue and a test compound (L-Leu^17 ]-VIP-Hse or pure native type VIP) or disodium cromoglycate was injected into a vein, under anesthetized with pentobarbital. After 30 minutes from an occasion of PCA reaction, the experimental animal was killed and pealed-off the skin to obtain a piece of the skin dyed with the coloring matter.
The coloring matter was extracted in accordance with the method described by Katayama ["Microbio. Immunol.", Vol. 22, No. 2, pages 89 (1987)] and an amount thereof was measured at 620 nm in wave length to calculate an inhibition of the PCA reaction.

The next assay has as its system arterial pressure. Kind of assay: Hypotensing action in anesthetized beagle dog. To be noted: injection in femoral artery, 0.02-10 μg/kg. Format: in vivo. On the procedure: In a femoral artery of anesthetized beagle dog (body weight: about 10 kg), each of VIP analogues as Test Samples was injected in a dose of 0.02-10 μg/kg and measured an arterial pressure to prepare a chart showing a relation between the dose and change in blood pressure and check an amount of dose which shall cause a reduction of 15 mmHg in blood pressure.

Where [1] appears, read: dose 0.01 mg/kg injected into a vein.
Setting [2] is: dose 0.1 mg/kg injected into a vein.
Where [3] appears, read: dose 1.0 mg/kg injected into a vein.

For the compound `O=C([O-])c1cc(=O)c2c(OCC(O)COc3cccc4oc(C(=O)[O-])cc(=O)c34)cccc2o1.[Na+].[Na+]` [Disodium cromoglycate], the results for the “Inhibition (%) of PCA reaction” value in the assay with PCA reaction (setting [1]), in the assay with PCA reaction (setting [2]) and in the assay on PCA reaction (setting [3]) were 5%, 28% and 31%, respectively.

For `CC[C@H](C)[C@H](NC(=O)[C@H](CO)NC(=O)[C@H](CC(N)=O)NC(=O)[C@H](CC(C)C)NC(=O)[C@H](Cc1ccc(O)cc1)NC(=O)[C@H](CCCCN)NC(=O)[C@H](CCCCN)NC(=O)[C@@H](NC(=O)[C@H](C)NC(=O)[C@H](CCSC)NC(=O)[C@H](CCC(N)=O)NC(=O)[C@H](CCCCN)NC(=O)[C@H](CCCNC(=N)N)NC(=O)[C@H](CC(C)C)NC(=O)[C@H](CCCNC(=N)N)NC(=O)[C@@H](NC(=O)[C@H](Cc1ccc(O)cc1)NC(=O)[C@H](CC(N)=O)NC(=O)[C@H](CC(=O)O)NC(=O)[C@@H](NC(=O)[C@H](Cc1ccccc1)NC(=O)[C@@H](NC(=O)[C@H](C)NC(=O)[C@H](CC(=O)O)NC(=O)[C@H](CO)NC(=O)[C@@H](N)Cc1c[nH]cn1)C(C)C)[C@@H](C)O)[C@@H](C)O)C(C)C)C(=O)N[C@@H](CC(C)C)C(=O)N[C@@H](CC(N)=O)C(N)=O` [Native type VIP, vasoactive intestinal polypeptide], the entries for the “Inhibition (%) of PCA reaction” value with PCA reaction (setting [1]), in the assay on PCA reaction (setting [2]) and in the assay with PCA reaction (setting [3]) were 23%, 72% and 67%, respectively. Moreover, in the assay on arterial pressure, the “amount of dose causing a reduction of 15 mmHg in blood pressure, relative value (native type VIP = 100%)” value worked out at 100%.
